Experimental data from PubChem BioAssay (NCI).
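In this assay, cells in 96-well plates receive the compound at five concentrations for 48 hours. Endpoints are linearly interpolated between the surrounding concentrations. GI50 marks 50% less growth. TGI: concentration producing complete growth inhibition.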

Key:
Assay in all cases: growth of human tumour cells (NCI), 48 h
[1] = tested on: SK-OV-3 ovarian
[2] = tested on: BT-549 breast
[3] = tested on: SNB-75 CNS
[4] = tested on: PC-3 prostate
[5] = tested on: SK-MEL-28 melanoma
[6] = tested on: COLO 205 colon
[7] = tested on: DU-145 prostate
[8] = tested on: MDA-MB-435
[9] = tested on: MCF7 breast
[10] = tested on: 786-0 renal
[11] = tested on: IGROV1 ovarian
[12] = tested on: MDA-MB-468 breast
[13] = tested on: CCRF-CEM leukemia
[14] = tested on: UACC-257 melanoma
[15] = tested on: NCI-H522 lung
[16] = tested on: RPMI-8226 leukemia
[17] = tested on: NCI-H23 lung
[18] = tested on: HT29 colon
[19] = tested on: EKVX NSCLC
[20] = tested on: SF-268 CNS
[21] = tested on: M14 melanoma
[22] = tested on: KM12 colon
[23] = tested on: HCT-15 colon
[24] = tested on: NCI-H460 lung
[25] = tested on: A549 NSCLC
[26] = tested on: HCC-2998 colon
[27] = tested on: OVCAR-5 ovarian
[28] = tested on: HCT-116 colon
[29] = tested on: SK-MEL-2 melanoma
[30] = tested on: OVCAR-3 ovarian
[31] = tested on: MOLT-4 leukemia
[32] = tested on: HOP-92 NSCLC
[33] = tested on: SNB-19 CNS
[34] = tested on: NCI-H226 lung
[35] = tested on: SN12C renal
[36] = tested on: UACC-62 melanoma
[37] = tested on: SF-295 CNS
[38] = tested on: MDA-MB-231 breast
[39] = tested on: OVCAR-8 ovarian
[40] = tested on: LOX IMVI melanoma
[41] = tested on: HOP-62 NSCLC
[42] = tested on: U251 CNS
[43] = tested on: OVCAR-4 ovarian
[44] = tested on: ACHN renal
[45] = tested on: SF-539 CNS
[46] = tested on: SR leukemia
[47] = tested on: RXF 393 renal
[48] = tested on: CAKI-1 renal
[49] = tested on: UO-31 renal
[50] = tested on: MALME-3M melanoma
[51] = tested on: HS 578T breast
[52] = tested on: SK-MEL-5 melanoma
[53] = tested on: HL-60(TB) leukemia
[54] = tested on: T-47D breast
[55] = tested on: TK-10 renal
[56] = tested on: K-562 leukemia
[57] = tested on: SW-620 colon
[58] = tested on: A498 renal

For COc1cc(/C=N/NC(=O)c2ccc3nc(-c4ccc(Cl)cc4)[nH]c3c2)cc(OC)c1OC, the GI50 [1] was 15 µM, the TGI [1] was 38.1 µM and the GI50 [2] was 2.69 µM. It also gave a TGI [2] of 9.27 µM, a GI50 [3] of 1.28 µM and a TGI [3] of 6.68 µM. The GI50 [4] was 5.73 µM, the TGI [4] was > 100 µM and the GI50 [5] was 1.83 µM. For the same compound, the TGI [5] was 6.78 µM, the GI50 [6] was 2.84 µM and the TGI [6] was 24.4 µM. For the same compound, the GI50 [7] was 6.77 µM, the TGI [7] was 20.9 µM and the GI50 [8] was 4.13 µM. For the same compound, the TGI [8] was 15.3 µM, the GI50 [9] was 0.663 µM and the TGI [9] was 12.5 µM. For the same compound, the GI50 [10] was 4.88 µM, the TGI [10] was 18.7 µM and the GI50 [11] was 11 µM. It also gave a TGI [11] of 30.8 µM, a GI50 [12] of 3.27 µM and a TGI [12] of 10.1 µM. The GI50 [13] was 6.27 µM, the TGI [13] was > 100 µM and the GI50 [14] was 4.67 µM. The TGI [14] was 18.8 µM, the GI50 [15] was 4.9 µM and the TGI [15] was 20.9 µM. The GI50 [16] was 3.21 µM, the TGI [16] was > 100 µM and the GI50 [17] was 4.72 µM. For the same compound, the TGI [17] was 18.8 µM, the GI50 [18] was 2.98 µM and the TGI [18] was 15.5 µM. For the same compound, the GI50 [19] was 14.8 µM, the TGI [19] was 97.2 µM and the GI50 [20] was 4.4 µM. It also gave a TGI [20] of 20.5 µM, a GI50 [21] of 3.77 µM and a TGI [21] of 21.1 µM. For the same compound, the GI50 [22] was 4.5 µM, the TGI [22] was 17.9 µM and the GI50 [23] was 73 µM. The TGI [23] was > 100 µM, the GI50 [24] was 3.19 µM and the TGI [24] was 10.2 µM. For the same compound, the GI50 [25] was 7.55 µM, the TGI [25] was 38.4 µM and the GI50 [26] was 11.1 µM. The TGI [26] was 29.3 µM, the GI50 [27] was 15.6 µM and the TGI [27] was 41.2 µM. For the same compound, the GI50 [28] was 3.26 µM, the TGI [28] was 10.6 µM and the GI50 [29] was 11 µM. It also gave a TGI [29] of 25 µM, a GI50 [30] of 2.28 µM and a TGI [30] of 4.88 µM. The GI50 [31] was 3.58 µM, the TGI [31] was 28.1 µM and the GI50 [32] was 5.95 µM. For the same compound, the TGI [32] was 23.2 µM, the GI50 [33] was 3.42 µM and the TGI [33] was 10.5 µM. It also gave a GI50 [34] of 1.31 µM, a TGI [34] of 16.1 µM and a GI50 [35] of 3.22 µM. For the same compound, the TGI [35] was 11 µM, the GI50 [36] was 1.24 µM and the TGI [36] was 12.2 µM. It also gave a GI50 [37] of 4.18 µM, a TGI [37] of 15.9 µM and a GI50 [38] of 3.39 µM. The TGI [38] was 11.1 µM, the GI50 [39] was 3.87 µM and the TGI [39] was 18.9 µM. It also gave a GI50 [40] of 4.67 µM, a TGI [40] of 16.1 µM and a GI50 [41] of 4.68 µM. The TGI [41] was 16.4 µM, the GI50 [42] was 2.59 µM and the TGI [42] was 5.9 µM. For the same compound, the GI50 [43] was 2.35 µM, the TGI [43] was 7.29 µM and the GI50 [44] was 7.93 µM. The TGI [44] was > 100 µM, the GI50 [45] was 2.02 µM and the TGI [45] was 6.98 µM. The GI50 [46] was 3.76 µM, the TGI [46] was 19.1 µM and the GI50 [47] was 2.22 µM. For the same compound, the TGI [47] was 9.02 µM, the GI50 [48] was 11.2 µM and the TGI [48] was 30.8 µM. The GI50 [49] was > 100 µM, the TGI [49] was > 100 µM and the GI50 [50] was 1.12 µM. The TGI [50] was 3.36 µM, the GI50 [51] was 2.58 µM and the TGI [51] was 7 µM. For the same compound, the GI50 [52] was 2.83 µM, the TGI [52] was 12.2 µM and the GI50 [53] was 3.9 µM. It also gave a TGI [53] of 60.4 µM, a GI50 [54] of 3.48 µM and a TGI [54] of 21 µM. The GI50 [55] was 28.8 µM, the TGI [55] was > 100 µM and the GI50 [56] was 1.96 µM. It also gave a TGI [56] of 6.33 µM, a GI50 [57] of 4.4 µM and a TGI [57] of 17.4 µM. It also gave a GI50 [58] of 26.4 µM and a TGI [58] of 77.6 µM.
O=C([Se]C1C=CCCC1)c1ccc(C(=O)[Se]C2C=CCCC2)s1 (configuration not stated) showed a GI50 [1] of 2.33 µM, a TGI [1] of 5.33 µM and a GI50 [2] of 3.55 µM. It also gave a TGI [2] of 11.7 µM, a GI50 [3] of 1.38 µM and a TGI [3] of 2.94 µM. It also gave a GI50 [4] of 1.95 µM, a TGI [4] of 5.95 µM and a GI50 [5] of 3.11 µM. For the same compound, the TGI [5] was 11.6 µM, the GI50 [6] was 2.42 µM and the TGI [6] was 7.25 µM. It also gave a GI50 [7] of 3.48 µM, a TGI [7] of 11.5 µM and a GI50 [8] of 6.42 µM. The TGI [8] was 23.1 µM, the GI50 [9] was 2.79 µM and the TGI [9] was 10.6 µM. It also gave a GI50 [10] of 2.02 µM, a TGI [10] of 4.08 µM and a GI50 [11] of 1.81 µM. It also gave a TGI [11] of 3.48 µM, a GI50 [12] of 2.13 µM and a TGI [12] of 5.18 µM. For the same compound, the GI50 [13] was 2.68 µM, the TGI [13] was 8.66 µM and the GI50 [14] was 2.44 µM. It also gave a TGI [14] of 6.89 µM, a GI50 [15] of 1.71 µM and a TGI [15] of 3.32 µM. It also gave a GI50 [16] of 2.53 µM, a TGI [16] of 6.53 µM and a GI50 [17] of 1.95 µM. The TGI [17] was 4.18 µM, the GI50 [18] was 4.01 µM and the TGI [18] was 25.7 µM. It also gave a GI50 [19] of 2.01 µM, a TGI [19] of 4.7 µM and a GI50 [20] of 3.34 µM. It also gave a TGI [20] of 16.9 µM, a GI50 [21] of 2.02 µM and a TGI [21] of 4.56 µM. It also gave a GI50 [22] of 2.76 µM, a TGI [22] of 7.08 µM and a GI50 [23] of 3.1 µM. The TGI [23] was 11.6 µM, the GI50 [24] was 1.43 µM and the TGI [24] was 10.1 µM. It also gave a GI50 [25] of 3.09 µM, a TGI [25] of 18.7 µM and a GI50 [26] of 2.49 µM. The TGI [26] was 6.19 µM, the GI50 [27] was 2.07 µM and the TGI [27] was 4.75 µM. The GI50 [28] was 2.87 µM, the TGI [28] was 8.75 µM and the GI50 [29] was 1.77 µM. For the same compound, the TGI [29] was 3.71 µM, the GI50 [30] was 2.13 µM and the TGI [30] was 4.7 µM. For the same compound, the GI50 [31] was 2.89 µM, the TGI [31] was 8.34 µM and the GI50 [32] was 2.85 µM. For the same compound, the TGI [32] was 11 µM, the GI50 [33] was 1.35 µM and the TGI [33] was 3.56 µM. It also gave a GI50 [34] of 3.42 µM, a TGI [34] of 15.2 µM and a GI50 [35] of 2.05 µM. For the same compound, the TGI [35] was 4.34 µM, the GI50 [36] was 1.92 µM and the TGI [36] was 4.2 µM. The GI50 [37] was 0.366 µM, the TGI [37] was 1.64 µM and the GI50 [38] was 2.02 µM. For the same compound, the TGI [38] was 4.16 µM, the GI50 [39] was 1.79 µM and the TGI [39] was 3.47 µM. For the same compound, the GI50 [40] was 2.71 µM, the TGI [40] was 8.88 µM and the GI50 [41] was 1.17 µM. It also gave a TGI [41] of 6.65 µM, a GI50 [42] of 1.94 µM and a TGI [42] of 4.47 µM. The GI50 [43] was 2.19 µM, the TGI [43] was 4.98 µM and the GI50 [44] was 2.32 µM. For the same compound, the TGI [44] was 5.58 µM, the GI50 [45] was 1.82 µM and the TGI [45] was 3.23 µM. For the same compound, the GI50 [46] was 2.26 µM, the TGI [46] was 5.53 µM and the GI50 [47] was 2.37 µM. For the same compound, the TGI [47] was 5.69 µM, the GI50 [48] was 2.93 µM and the TGI [48] was 10.2 µM. It also gave a GI50 [49] of 1.73 µM, a TGI [49] of 3.38 µM and a GI50 [50] of 2.27 µM. It also gave a TGI [50] of 5.52 µM, a GI50 [51] of 2.36 µM and a TGI [51] of 6.69 µM. It also gave a GI50 [52] of 1.83 µM, a TGI [52] of 3.99 µM and a GI50 [53] of 1.94 µM. It also gave a TGI [53] of 4.81 µM, a GI50 [54] of 2.17 µM and a TGI [54] of 5.19 µM. The GI50 [55] was 1.87 µM, the TGI [55] was 3.88 µM and the GI50 [56] was 3.96 µM. It also gave a TGI [56] of 49.7 µM, a GI50 [57] of 2.32 µM and a TGI [57] of 6.01 µM. It also gave a GI50 [58] of 2.47 µM and a TGI [58] of 7.29 µM.
